What all share (experiment): NCI tumour cell line growth inhibition, 48 h
Assay [1] has as its system 786-0.
The subject of assay [2] is UO-31.
Assay [3] deals with A498.
Assay [4] relates to NCI-H460.
Assay [5] deals with DU-145.
Assay [6] relates to HCT-15.
Assay [7] deals with T47D.
Assay [8] deals with MOLT-4.
The subject of assay [9] is SNB-75.
The subject of assay [10] is HT-29.
Assay [11] concerns UACC-62.
Assay [12] relates to NCI-H226.
Assay [13] relates to Hs-578T.
For assay [14], the system named is BT-549.
Assay [15] concerns IGROV-1.
Assay [16] concerns HOP-92.
Assay [17] deals with U-251.
Assay [18] has as its system KM12.
Assay [19] has as its system HCT-116.
For assay [20], the system named is RPMI-8226.

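In this assay, cells in 96-well plates receive the compound at five concentrations for 48 hours. Endpoints are linearly interpolated between the surrounding concentrations. At the GI50, growth is halved.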 Activity calls are given as the source filed them. No stated cut-off is given here; in the data, active = GI50 up to about 1.1 µM and inactive = higher.

On to `CC1CN(c2cc3c(cc2F)c(=O)c(C(=O)O)cn3-c2ccc(F)cn2)CC(C)N1` (stereo not given), for which the GI50 in [1] is > 100 µM (inactive); in assay [2], > 100 µM (inactive); in assay [3], > 100 µM (inactive); in assay [4] it was > 100 µM (inactive); in assay [5], > 100 µM (inactive); in [6] it was above 100 µM. The GI50 in [7], in assay [8], in assay [9], in assay [10], in [11] and in assay [12] was > 100 µM (inactive) throughout. Moreover, the GI50 in [13], in assay [14], in assay [15], in assay [16], in [17] and in [18] was > 100 µM (inactive) each time. For the same compound, the GI50 in assay [19] and in assay [20] was > 100 µM (inactive) throughout.
On to `CCCn1c(=O)c2ccccc2[n+]2c(-c3ccc([N+](=O)[O-])cc3)csc12`, for which the GI50 is 26.2 µM (inactive) in assay [1]; 18.3 µM (inactive) in assay [2]; 25.2 µM (inactive) in assay [3]; 21.9 µM (inactive) in assay [4]; 38.9 µM (inactive) in assay [5]; 34.3 µM in [6]. The GI50 is 30.6 µM (inactive) in [7]; 30.6 µM (inactive) in assay [8]; 21.7 µM (inactive) in assay [9]; 25 µM (inactive) in [10]; 32.7 µM (inactive) in assay [11]; 29.4 µM (inactive) in assay [12]. For the same compound, the GI50 in assay [13] is 23.3 µM (inactive); in assay [14], 33.9 µM (inactive); in [15], 20.3 µM (inactive); in assay [16] it was 32.4 µM (inactive); in [17], 34.4 µM (inactive); in assay [18], 18.8 µM (inactive). Moreover, the GI50 in assay [19] is 23.8 µM (inactive); in assay [20] it was 18 µM (inactive).
Consider `CCOC(=O)C1C(=O)CC(O)(c2ccccc2)C(C(=O)OCC)C1c1ccc(OC)cc1` (stereo not given), for which the GI50 was 22.6 µM (inactive) in assay [1]; 61.2 µM (inactive) in [2]; 42.2 µM (inactive) in assay [3]; 18.2 µM (inactive) in assay [4]; 47.3 µM (inactive) in assay [5]; 19.4 µM in assay [6]. The GI50 in assay [7] was 42.2 µM (inactive); in assay [8], 17.5 µM (inactive); in assay [9] it was 0.479 µM (active); in [10], 6.82 µM (inactive); in assay [11], 21.9 µM (inactive); in assay [12] it was 32.4 µM (inactive). Moreover, the GI50 in [13] is 0.695 µM (active); in assay [14], 34.7 µM (inactive); in assay [15], 20 µM (inactive); in assay [16], 15.3 µM (inactive); in [17] it was 16 µM (inactive); in [18], 6.31 µM (inactive). Further, the GI50 in [19] is 4.94 µM (inactive); in [20] it was 13.8 µM (inactive).
As to `COc1ccc(NC(=S)N/N=C/c2cccc(C)n2)cc1`, the GI50 was 3.98 µM (inactive) in [1]; 3.33 µM (inactive) in assay [2]; 18.8 µM (inactive) in [3]; 3.46 µM (inactive) in assay [4]; 5.56 µM (inactive) in assay [5]; 2.31 µM in [6]. Moreover, the GI50 is 3.62 µM (inactive) in assay [7]; 3.07 µM (inactive) in assay [8]; 4.93 µM (inactive) in assay [9]; 3.94 µM (inactive) in assay [10]; 2.24 µM (inactive) in assay [11]; 10.2 µM (inactive) in assay [12]. Further, the GI50 in assay [13] was 24.7 µM (inactive); in assay [14], 10.7 µM (inactive); in assay [15], 2.37 µM (inactive); in [16], 5.65 µM (inactive); in assay [17], 4.09 µM (inactive); in assay [18], 3.98 µM (inactive). Also, the GI50 in assay [19] was 3.33 µM (inactive); in assay [20], 3.68 µM (inactive).
On to `CCOC(=O)c1cn2c(n1)sc1cc(Cl)ccc12`, for which the GI50 was 6.58 µM (inactive) in assay [1]; 7.21 µM (inactive) in assay [2]; 33.6 µM (inactive) in assay [3]; > 100 µM (inactive) in [4]; 10.7 µM (inactive) in assay [5]; 5.64 µM in assay [6]. For the same compound, the GI50 in assay [7] was 57.8 µM (inactive); in assay [8], 2.96 µM (inactive); in assay [9], 31 µM (inactive); in [10], 17 µM (inactive); in assay [11], 59.7 µM (inactive); in assay [12], 72.6 µM (inactive). The GI50 in assay [13] was 24.7 µM (inactive); in assay [14] it was > 100 µM (inactive); in [15], 24.7 µM (inactive); in assay [16] it was > 100 µM (inactive); in assay [17], 14.1 µM (inactive); in [18] it was 4.54 µM (inactive). Moreover, the GI50 in assay [19] is 3.37 µM (inactive); in assay [20], 8.41 µM (inactive).
`COC1=CC(=O)c2c(O)ccc(O)c2C1=O`: the GI50 was 14.6 µM (inactive) in assay [1]; 17.3 µM (inactive) in assay [2]; 17.8 µM (inactive) in assay [3]; 5.04 µM (inactive) in [4]; 1.78 µM (inactive) in assay [5]; 2.4 µM in assay [6]. Moreover, the GI50 is 18.1 µM (inactive) in [7]; 13.8 µM (inactive) in [8]; 1.91 µM (inactive) in assay [9]; 1.72 µM (inactive) in [10]; 1.92 µM (inactive) in assay [11]; 21.6 µM (inactive) in [12]. Besides, the GI50 in assay [13] was 6.4 µM (inactive); in assay [14] it was 2.44 µM (inactive); in [15], 18.1 µM (inactive); in [16] it was 18.6 µM (inactive); in [17], 13.1 µM (inactive); in assay [18] it was 6.93 µM (inactive). Also, the figures for the GI50 in assay [19] and in assay [20] were 4.6 µM (inactive) and 9.2 µM (inactive), respectively.
Regarding `O=C1c2c(O)ccc(O)c2C(=O)c2c(NCCNC(=O)C(O)C(O)C(O)C(O)CO)ccc(NCCNC(=O)C(O)C(O)C(O)C(O)CO)c21` (stereo not given), the GI50 was < 0.01 µM (active) in [1]; 0.0186 µM (active) in [2]; 0.149 µM (active) in [3]; < 0.01 µM (active) in [4]; < 0.01 µM (active) in assay [5]; 0.0138 µM in [6]. The GI50 in assay [7] is 0.0102 µM (active); in [8], < 0.01 µM (active); in assay [9], 0.0356 µM (active); in [10], 0.03 µM (active); in assay [11], 0.0154 µM (active); in assay [12] it was < 0.0126 µM (active). Also, the GI50 in assay [13] was 0.213 µM (active); in [14] it was 0.121 µM (active); in [15] it was < 0.0383 µM (active); in assay [16] it was < 0.01 µM (active); in assay [17] it was 0.0109 µM (active); in [18] it was 0.0277 µM (active). Besides, the results for the GI50 in assay [19] and in assay [20] were 0.0332 µM (active) and < 0.01 µM (active), respectively.
On to `CC(=O)OC(OC(C)=O)c1ccc2ccc3cccc4ccc1c2c34`, for which the GI50 in assay [1] is 36.1 µM (inactive); in assay [2], 22.3 µM (inactive); in [3], 1.48 µM (inactive); in assay [4] it was 21.4 µM (inactive); in [5], 21 µM (inactive); in [6], 33.7 µM. Moreover, the GI50 in [7] was 22.9 µM (inactive); in [8], 39.4 µM (inactive); in assay [9] it was 15.7 µM (inactive); in assay [10], 18 µM (inactive); in assay [11], 12.7 µM (inactive); in [12], 3.08 µM (inactive). Moreover, the GI50 in assay [13] is 16.1 µM (inactive); in assay [14], 25.1 µM (inactive); in assay [15], 21.7 µM (inactive); in [16] it was 17.9 µM (inactive); in assay [17], 14.3 µM (inactive); in assay [18] it was 9.77 µM (inactive). The GI50 in assay [19] was 22.4 µM (inactive); in [20], 16.3 µM (inactive).
For `CC(C)(C)OC(=O)CN1CCN(CC(=O)N2CCN(C(=O)OCc3ccccc3)CC2)CCN(CC(=O)OC(C)(C)C)CCN(CC(=O)N2CCN(C(=O)OCc3ccccc3)CC2)CC1`, the GI50 was 2.21 µM (inactive) in assay [1]; 12.7 µM (inactive) in assay [2]; 15.4 µM (inactive) in [3]; 1.35 µM (inactive) in [4]; 6.95 µM (inactive) in assay [5]; 6.15 µM in assay [6]. In addition, the GI50 is 3.12 µM (inactive) in assay [7]; 1.98 µM (inactive) in assay [8]; 1.35 µM (inactive) in assay [9]; 0.318 µM (active) in assay [10]; 2.67 µM (inactive) in assay [11]; 3.84 µM (inactive) in assay [12]. In addition, the GI50 is 1.79 µM (inactive) in assay [13]; 3.94 µM (inactive) in [14]; 0.853 µM (active) in assay [15]; 2.6 µM (inactive) in assay [16]; 1.7 µM (inactive) in assay [17]; 1.42 µM (inactive) in [18]. For the same compound, the GI50 in [19] is 3.11 µM (inactive); in [20], 0.942 µM (active).
With `Sc1nc(S)nc(Oc2ccc(Cl)c(Cl)c2)n1`, the GI50 is > 61.2 µM (inactive) in assay [1]; 24.6 µM (inactive) in assay [2]; 24 µM (inactive) in [3]; 25.5 µM (inactive) in assay [4]; 57.9 µM (inactive) in [5]; 43.5 µM in assay [6]. The GI50 in assay [7] is 24.4 µM (inactive); in [8], 18.1 µM (inactive); in assay [9], 30.3 µM (inactive); in [10], 49.5 µM (inactive); in assay [11], 31.3 µM (inactive); in assay [12] it was 38.1 µM (inactive). Further, the GI50 in [13] was 89.1 µM (inactive); in assay [14], 57.8 µM (inactive); in [15], > 56.1 µM (inactive); in assay [16] it was 19.2 µM (inactive); in assay [17], 44.8 µM (inactive); in assay [18], 14.6 µM (inactive). The values for the GI50 in assay [19] and in assay [20] were 30.6 µM (inactive) and 9.95 µM (inactive), respectively.
